Experimental data taken from ChEMBL document CHEMBL1201862, “PubChem BioAssay data set” (2004).
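96-well plates; 48 h exposure; 5 concentrations. Endpoints by linear interpolation between flanking doses. Not reached: highest tested concentration assigned. At the GI50, growth is halved.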 Calls of active or inactive are those of the source. Cut-off read from the data, not from the text of the source: active = GI50 up to about 1.1 µM and inactive = higher.

How the values were obtained:
Assay in all cases: DTP human tumour cell line panel, 48 h
HL-60 = tested on: HL-60
HCC 2998 = tested on: HCC 2998
OVCAR-5 = tested on: OVCAR-5
A549 = tested on: A549
EKVX = tested on: EKVX
SN12C = tested on: SN12C
SF-268 = tested on: SF-268
HCT-15 = tested on: HCT-15
COLO 205 = tested on: COLO 205
786-0 = tested on: 786-0
ACHN = tested on: ACHN
SK-OV-3 = tested on: SK-OV-3
U-251 = tested on: U-251
SNB-19 = tested on: SNB-19
PC-3 = tested on: PC-3
MDA-MB-231 = tested on: MDA-MB-231
MDA-N = tested on: MDA-N
DU-145 = tested on: DU-145
NCI/ADR-RES = tested on: NCI/ADR-RES
Hs-578T = tested on: Hs-578T

| SMILES | GI50 (HL-60) | GI50 (HCC 2998) | GI50 (OVCAR-5) | GI50 (A549) | GI50 (EKVX) | GI50 (SN12C) | GI50 (SF-268) | GI50 (HCT-15) [µM] | GI50 (COLO 205) | GI50 (786-0) | GI50 (ACHN) | GI50 (SK-OV-3) | GI50 (U-251) | GI50 (SNB-19) | GI50 (PC-3) | GI50 (MDA-MB-231) | GI50 (MDA-N) | GI50 (DU-145) | GI50 (NCI/ADR-RES) | GI50 (Hs-578T) |
| --- | --- | --- | --- | --- | --- | --- | --- | --- | --- | --- | --- | --- | --- | --- | --- | --- | --- | --- | --- | --- |
| COc1cc(/C=C2/C(=O)N(C(=O)c3ccc(Cl)cc3)N=C2C)cc(OC)c1OC | > 100 µM (inactive) | > 100 µM (inactive) | > 100 µM (inactive) | > 100 µM (inactive) | > 100 µM (inactive) | > 100 µM (inactive) | > 100 µM (inactive) | > 100 | > 100 µM (inactive) | > 100 µM (inactive) | > 100 µM (inactive) | > 100 µM (inactive) | > 100 µM (inactive) | > 100 µM (inactive) |  |  |  |  |  |  |
| COC1=C(N)C(=O)c2nc(C)ccc2C1=O | 2.94 µM (inactive) | 4.57 µM (inactive) | 1.98 µM (inactive) | 2.18 µM (inactive) | 2.77 µM (inactive) | 1.82 µM (inactive) | 2.11 µM (inactive) | 1.92 | 1.79 µM (inactive) | 1.98 µM (inactive) | 1.77 µM (inactive) | 8.04 µM (inactive) | 2.2 µM (inactive) | 1.91 µM (inactive) |  |  |  |  |  |  |
| COc1ccc2cc(C(=O)NCCCNC(=O)c3ccc4c(OC)c(OC)ccc4c3)ccc2c1OC |  | > 100 µM (inactive) | > 100 µM (inactive) | > 100 µM (inactive) | > 100 µM (inactive) | > 100 µM (inactive) | > 100 µM (inactive) | > 100 | > 100 µM (inactive) | > 100 µM (inactive) | > 100 µM (inactive) | > 100 µM (inactive) | > 100 µM (inactive) | > 100 µM (inactive) | > 100 µM (inactive) | > 100 µM (inactive) | > 100 µM (inactive) | > 100 µM (inactive) | > 100 µM (inactive) |  |
| CN(C)CCNC(=O)c1cccc2ccc(-c3ccc(Br)cc3)nc12 | 1.23 µM (inactive) | 1.85 µM (inactive) | 2.96 µM (inactive) | 1.09 µM (active) | 2.61 µM (inactive) | 2.33 µM (inactive) | 3.92 µM (inactive) | 2.78 | 0.944 µM (active) |  |  | 2.82 µM (inactive) | 2.8 µM (inactive) | 4.14 µM (inactive) |  |  |  |  | 1.8 µM (inactive) |  |
| N#Cc1c(N)sc2c1-c1ccccc1OC2 | 16.4 µM (inactive) | 26 µM (inactive) | 31.6 µM (inactive) | 32.4 µM (inactive) | 3.52 µM (inactive) | 19.7 µM (inactive) | 37.1 µM (inactive) | 26.7 | 42.8 µM (inactive) |  | 32.2 µM (inactive) | 38.2 µM (inactive) | 45.1 µM (inactive) | 30.5 µM (inactive) | 32.4 µM (inactive) | 46.9 µM (inactive) | 21.1 µM (inactive) | 50.1 µM (inactive) | 32.2 µM (inactive) |  |
| C/C(=N\NC(=S)N1CCN(C2CCCCCC2)CC1)c1ccccn1 | 0.01 µM (active) | < 0.0485 µM (active) |  | < 0.0379 µM (active) | < 0.0121 µM (active) | 0.111 µM (active) | 0.337 µM (active) | 0.01 | 0.01 µM (active) |  | 0.145 µM (active) | 0.0565 µM (active) | < 0.0117 µM (active) | 1.71 µM (inactive) | 0.01 µM (active) | 1.31 µM (inactive) |  | 1.02 µM (active) | 0.01 µM (active) | 1.49 µM (inactive) |
| CC1=C2C=CC(=O)C[C@@]2(C)CCC1 | > 100 µM (inactive) | > 100 µM (inactive) | > 100 µM (inactive) | > 100 µM (inactive) | > 100 µM (inactive) | > 100 µM (inactive) | > 100 µM (inactive) | > 100 | > 100 µM (inactive) | > 100 µM (inactive) | > 100 µM (inactive) | > 100 µM (inactive) | > 100 µM (inactive) | > 100 µM (inactive) |  |  |  |  |  |  |
| c1cc2c(s1)-c1sccc1C21OCCO1 | > 100 µM (inactive) | > 100 µM (inactive) | > 100 µM (inactive) | 69 µM (inactive) | > 100 µM (inactive) | > 100 µM (inactive) | 18.7 µM (inactive) | 76.2 | > 100 µM (inactive) | > 100 µM (inactive) | > 100 µM (inactive) |  | > 100 µM (inactive) | > 100 µM (inactive) |  | > 100 µM (inactive) | > 100 µM (inactive) | > 100 µM (inactive) | > 100 µM (inactive) |  |
| COc1ccc(C2C=C(c3ccc(C)cc3)N(c3ccc(OC)cc3[N+](=O)[O-])C3C(=O)OC(=O)C23)c(OC)c1 (stereo not given) | 31.8 µM (inactive) | 29.9 µM (inactive) | 48.3 µM (inactive) | 37 µM (inactive) | 28.2 µM (inactive) |  | 18.5 µM (inactive) | 33.5 | 43.1 µM (inactive) | 30.8 µM (inactive) | 16 µM (inactive) | 25 µM (inactive) | 45.9 µM (inactive) | 47 µM (inactive) | 42.4 µM (inactive) | 53.2 µM (inactive) |  |  |  | 22.5 µM (inactive) |
| O=C(O)COc1ccc(C(=O)/C(SS/C(C(=O)c2ccc(OCC(=O)O)c(Cl)c2Cl)=C2\C=C(c3ccc(Br)cc3)SS2)=C2/C=C(c3ccc(Br)cc3)SS2)c(Cl)c1Cl | 1.55 µM (inactive) | 10.2 µM (inactive) | 24.8 µM (inactive) | 33.9 µM (inactive) | 28 µM (inactive) | 6.32 µM (inactive) | 2.82 µM (inactive) | 4.92 | 3.11 µM (inactive) | 3.87 µM (inactive) | 4.58 µM (inactive) | 21.3 µM (inactive) | 3.47 µM (inactive) | 5.55 µM (inactive) |  |  |  | 16.8 µM (inactive) |  | 3.57 µM (inactive) |
| CCOC(=O)Cn1nnc2cc(Nc3c(C)[n+]([O-])c4cc(F)c(OCC)cc4[n+]3[O-])ccc21 | > 100 µM (inactive) |  | > 100 µM (inactive) |  | > 100 µM (inactive) |  | 45.8 µM (inactive) | > 100 |  | 43.4 µM (inactive) | 35.9 µM (inactive) | 38.6 µM (inactive) | 32.5 µM (inactive) |  | > 100 µM (inactive) | 27.1 µM (inactive) |  | > 100 µM (inactive) | > 100 µM (inactive) | 41.8 µM (inactive) |
| Cn1c(CO)ccc1-c1ccc(-c2ccc(CO)[se]2)[se]1 | 7.91 µM (inactive) | 0.705 µM (active) |  | 15.4 µM (inactive) | 48.1 µM (inactive) | 10.6 µM (inactive) | > 78.5 µM (inactive) | 9.82 | 1.77 µM (inactive) | 9.04 µM (inactive) | 19.3 µM (inactive) | > 50.4 µM (inactive) | 0.528 µM (active) | > 63.4 µM (inactive) | 18.2 µM (inactive) | 21.2 µM (inactive) |  | 12.9 µM (inactive) | 33.9 µM (inactive) | > 100 µM (inactive) |
| Cn1c(=O)n(C2(C)C[Se]C2)c2ccccc21 | > 100 µM (inactive) | 65.3 µM (inactive) | > 100 µM (inactive) | > 100 µM (inactive) | > 100 µM (inactive) | > 100 µM (inactive) | > 100 µM (inactive) | > 100 | > 100 µM (inactive) | > 100 µM (inactive) | > 100 µM (inactive) | > 100 µM (inactive) | > 100 µM (inactive) | > 100 µM (inactive) |  |  |  |  |  |  |
| CC(=O)OC(C)(C)CCC(=O)[C@](C)(O)[C@H]1[C@H](O)C[C@@]2(C)[C@@H]3CC=C4C(C)=C(OC5OC(CO)C(O)C(O)C5O)C(=O)C[C@@H]4[C@]3(C)C(=O)C[C@]12C (stereo not given in full) |  | > 100 µM (inactive) | > 100 µM (inactive) | > 100 µM (inactive) | > 100 µM (inactive) | > 100 µM (inactive) | > 100 µM (inactive) | > 100 | > 100 µM (inactive) | > 100 µM (inactive) | > 100 µM (inactive) | > 100 µM (inactive) | > 100 µM (inactive) | > 100 µM (inactive) | > 100 µM (inactive) | > 100 µM (inactive) | > 100 µM (inactive) | > 100 µM (inactive) | > 100 µM (inactive) |  |
| O=C(NCCCCCCCCNC(=O)c1cccc2ccccc12)c1cccc2ccccc12 | > 100 µM (inactive) | > 95.7 µM (inactive) | > 100 µM (inactive) | 34.2 µM (inactive) | 19.5 µM (inactive) | 18.8 µM (inactive) | 9.93 µM (inactive) | 97.5 | 55.1 µM (inactive) | 4.89 µM (inactive) | 17.1 µM (inactive) | 10.7 µM (inactive) | 12.5 µM (inactive) | 20.1 µM (inactive) | > 100 µM (inactive) |  | > 100 µM (inactive) | > 100 µM (inactive) | 28.3 µM (inactive) |  |
| N#C/C(=C\c1cc(F)cc(F)c1)c1ccccn1 | > 10 µM (inactive) | 21.1 µM (inactive) | 28.8 µM (inactive) | 28.6 µM (inactive) | 13 µM (inactive) | 24 µM (inactive) | 19.4 µM (inactive) | 15.4 | > 10 µM (inactive) | > 10 µM (inactive) | 30.6 µM (inactive) | 61.8 µM (inactive) | 16.8 µM (inactive) | 45.6 µM (inactive) | 24.3 µM (inactive) |  | 19.7 µM (inactive) | 36.9 µM (inactive) | 23.6 µM (inactive) |  |
| NS(=O)(=O)c1ccc(-n2c(-c3cccs3)nc3ccc(I)cc3c2=O)cc1 | 20.6 µM (inactive) | 22.1 µM (inactive) | 24.6 µM (inactive) | 18.7 µM (inactive) | 25.1 µM (inactive) | 30.3 µM (inactive) | 28.2 µM (inactive) | 20.9 | 19.7 µM (inactive) | 28.7 µM (inactive) | 21.4 µM (inactive) | 22.6 µM (inactive) | 20 µM (inactive) | 40.4 µM (inactive) | 26.6 µM (inactive) |  | 33.3 µM (inactive) | 18.8 µM (inactive) | 29.1 µM (inactive) |  |
